Data from patent US8546451B2 (priority 2005, dated 2013).

How the values were obtained:
[1] = Renal function after single oral dose; type: in vivo
[2] = target: glucocorticoid receptor (GR) (Rattus norvegicus (Rat), UniProt P06536); assay: Cross-reactivity transcriptional activation assay, GR; type: cell-based; conditions: agonist and antagonist modes
From the text: (§1) Compound IV was screened for cross-reactivity against rat isoforms of glucocorticoid receptor (GR), mineralocorticoids receptor (MR), progesterone receptor (PR), androgen receptor (AR) and human isoforms of farnesoid X receptor (FXR), liver X receptor (LXR), peroxisome proliferator-activated receptors (PPAR-α and PPAR-γ), and retinoid X receptor (RXR-α) in both agonist and antagonist modes in transcriptional activation assays.

PPAR-γ = PPAR-γ (Homo sapiens (Human), UniProt P37231); assay: Cross-reactivity transcriptional activation assay, PPAR-γ; type: cell-based; conditions: agonist and antagonist modes
Chain of PPAR-γ (P37231 whole entry): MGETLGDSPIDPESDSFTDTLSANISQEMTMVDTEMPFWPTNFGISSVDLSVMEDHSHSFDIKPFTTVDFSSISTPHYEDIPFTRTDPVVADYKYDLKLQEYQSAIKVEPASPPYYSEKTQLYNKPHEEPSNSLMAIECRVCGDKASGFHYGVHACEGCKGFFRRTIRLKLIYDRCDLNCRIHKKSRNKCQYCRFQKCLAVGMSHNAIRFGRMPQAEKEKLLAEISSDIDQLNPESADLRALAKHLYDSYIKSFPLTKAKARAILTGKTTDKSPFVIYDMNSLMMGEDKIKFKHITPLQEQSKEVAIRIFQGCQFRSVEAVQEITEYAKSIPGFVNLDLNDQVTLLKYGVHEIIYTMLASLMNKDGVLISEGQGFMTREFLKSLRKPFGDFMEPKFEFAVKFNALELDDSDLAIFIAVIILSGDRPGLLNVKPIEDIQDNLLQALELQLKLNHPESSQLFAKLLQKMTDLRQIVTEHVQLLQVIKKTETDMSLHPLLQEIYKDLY
From the text: as §1

[3] = tested on: serum testosterone and total androgens; assay: Testosterone suppression in Cynomolgus monkeys; type: in vivo; conditions: 30 mg/kg oral daily
CYP2C9 = CYP2C9 (Homo sapiens (Human), UniProt P11712); assay: CYP450 inhibition in vitro, CYP2C9; type: in vitro ADME
Chain of CYP2C9 (P11712 whole entry): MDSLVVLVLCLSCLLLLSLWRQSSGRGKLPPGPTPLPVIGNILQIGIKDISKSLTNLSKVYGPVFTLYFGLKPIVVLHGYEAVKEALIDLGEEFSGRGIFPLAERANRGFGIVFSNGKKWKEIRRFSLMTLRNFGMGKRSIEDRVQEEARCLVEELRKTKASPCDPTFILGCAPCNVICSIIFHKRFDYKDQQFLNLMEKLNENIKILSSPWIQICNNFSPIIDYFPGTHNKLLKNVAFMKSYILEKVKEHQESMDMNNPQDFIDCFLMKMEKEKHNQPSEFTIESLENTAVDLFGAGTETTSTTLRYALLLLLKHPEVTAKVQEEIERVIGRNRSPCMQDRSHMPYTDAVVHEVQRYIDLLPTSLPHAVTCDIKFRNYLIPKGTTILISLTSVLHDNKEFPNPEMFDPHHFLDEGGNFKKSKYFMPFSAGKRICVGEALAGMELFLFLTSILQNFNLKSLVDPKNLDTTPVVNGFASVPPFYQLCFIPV

[4] = tested on: LH, serum PSA, free testosterone and total testosterone; assay: Compound IV study on human males; type: in vivo
[5] = tested on: estrogen related receptor (ERR-α, ERR-β and ERR-γ); assay: DES versus Compound IV, ERR transactivation (FIG. 12C); type: cell-based
rats = assay: Single and repeated oral administration toxicity in rats; type: in vivo
From the text: Compound IV was well-tolerated by rats and dogs after single and repeated oral administration (up to 28 days).

[6] = target: farnesoid X receptor (FXR) (Homo sapiens (Human), UniProt Q96RI1); assay: Cross-reactivity transcriptional activation assay, FXR; type: cell-based; conditions: agonist and antagonist modes
Chain of farnesoid X receptor (FXR) (Q96RI1 whole entry): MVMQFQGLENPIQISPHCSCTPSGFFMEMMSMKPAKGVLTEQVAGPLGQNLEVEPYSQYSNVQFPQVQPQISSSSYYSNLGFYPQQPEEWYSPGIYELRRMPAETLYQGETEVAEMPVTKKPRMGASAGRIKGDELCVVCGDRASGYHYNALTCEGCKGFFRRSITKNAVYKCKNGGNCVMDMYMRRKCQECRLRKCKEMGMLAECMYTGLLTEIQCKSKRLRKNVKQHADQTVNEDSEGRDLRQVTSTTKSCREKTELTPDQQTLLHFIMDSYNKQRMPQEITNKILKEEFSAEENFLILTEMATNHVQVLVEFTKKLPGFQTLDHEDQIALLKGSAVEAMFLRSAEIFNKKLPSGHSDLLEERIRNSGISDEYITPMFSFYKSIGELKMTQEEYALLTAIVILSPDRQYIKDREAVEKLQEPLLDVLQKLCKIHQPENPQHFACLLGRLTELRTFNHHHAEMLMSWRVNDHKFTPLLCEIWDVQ
From the text: as §1

[7] = Oral pharmacokinetics in dogs; type: in vivo
Method: Formulations using polyethylene glycol 300 (PEG300) generally produced higher exposures than microemulsions prepared in Tween 80 diluted in deionized water. […] Importantly, in dogs the exposure in the male 30 mg/kg PEG300 oral dose group exceeded the exposure necessary to produce the maximal effect on prostate reduction in the rat model of LH suppression.

intact and ORX rats = assay: Prostate size, Compound IV versus DES in rats; type: in vivo
[8] = tested on: morphine dependent rat model; assay: Hot flashes in morphine dependent rat model (tail skin temperature); type: in vivo; conditions: morphine withdrawal model
Method: FIG. 13 depicts effect of Compound IV on attenuation of hot flashes in morphine withdrawal model with 5 mg/kg, 10 mg/kg, 15 mg/kg and 30 mg/kg dosages. N=7 animals per group. 17β-E2 was used at 5 mg/kg in 100% DMSO. (See Example 14.)
In addition to the similarities to the human condition, this experimental animal model has a short turn around time which makes it a useful high throughput screening tool for identifying compounds that can alleviate vasomotor symptoms using the tail skin temperature (TST). TST probes TA-40 (Data Sciences International, MN) were taped to the base of the tails and baseline temperatures were obtained for 15 minutes. After 15 minutes the animals were treated with naloxone (1 mg/kg, SQ) to reverse the effects of the morphine. Tail skin temperature (TST) was measured for one hour post-naloxone treatment with a sampling frequency of 5 secs throughout the course of the experiment. Following the data acquisition, the moving average of the temperature recorded every 60 seconds for each animal was calculated and further analyzed. Baseline temperature was computed as the average temperature acquired over the 15 minutes preceding naloxone administration. The area under the curve (AUC) was calculated by subtracting all the values post-naloxone administration from the baseline using a linear trapezoid method.

Chain of glucocorticoid receptor (GR) (P06536 whole entry, canonical isoform): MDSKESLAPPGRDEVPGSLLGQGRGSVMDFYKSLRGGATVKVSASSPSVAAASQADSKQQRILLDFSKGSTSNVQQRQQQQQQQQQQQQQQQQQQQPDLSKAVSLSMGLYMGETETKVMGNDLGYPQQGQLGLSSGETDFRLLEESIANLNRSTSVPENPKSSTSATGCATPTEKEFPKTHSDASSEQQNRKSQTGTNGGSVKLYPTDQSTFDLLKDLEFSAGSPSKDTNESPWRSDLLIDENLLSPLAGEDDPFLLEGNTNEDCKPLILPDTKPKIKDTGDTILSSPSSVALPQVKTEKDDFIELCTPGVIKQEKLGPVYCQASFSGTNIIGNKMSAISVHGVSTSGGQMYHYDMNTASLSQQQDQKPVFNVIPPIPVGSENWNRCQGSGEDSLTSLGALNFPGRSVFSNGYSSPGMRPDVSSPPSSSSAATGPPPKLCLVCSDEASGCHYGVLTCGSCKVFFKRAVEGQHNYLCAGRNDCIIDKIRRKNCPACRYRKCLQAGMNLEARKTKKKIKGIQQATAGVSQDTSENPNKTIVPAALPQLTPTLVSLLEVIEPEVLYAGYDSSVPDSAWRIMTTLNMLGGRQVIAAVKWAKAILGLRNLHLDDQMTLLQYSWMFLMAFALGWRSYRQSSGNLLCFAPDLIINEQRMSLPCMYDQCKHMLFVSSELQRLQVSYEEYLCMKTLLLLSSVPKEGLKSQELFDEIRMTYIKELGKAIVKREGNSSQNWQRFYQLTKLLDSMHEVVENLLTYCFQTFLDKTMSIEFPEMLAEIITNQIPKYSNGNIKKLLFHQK

In the case of `O=C(c1ccc(O)c(F)c1)N(c1ccc(O)cc1)c1ccc(F)cc1` [Compound IV, 3-fluoro-N-(4-fluorophenyl)-4-hydroxy-N-(4-hydroxyphenyl)benzamide], the “effects on renal function” value ([1]; highest dose tested (100 mg/kg)) is reported as “increased urine volume output and urinary excretion of potassium and chloride”, the “effects on renal function” value ([1]; single oral dose of up to 30 mg/kg) is reported as “No significant effects” and the “agonist or antagonist activity” value [2] is reported as “did not display any agonist or antagonist activity”. For the same molecule, the “agonist or antagonist activity” value (PPAR-γ) was “did not display any agonist or antagonist activity”, the “Testosterone Percent reduction from baseline” value (from here on “Testosterone Percent reduction”) ([3]; Animal 1, Day 2) was 16% and the “Testosterone Serum level” value ([3]; Animal 1, Day 2) was 937 pg/mL. For the same molecule, the “Total Androgens Percent reduction from baseline” value ([3]; Animal 1, Day 2) was 37%, the “Total Androgens Serum level” value ([3]; Animal 1, Day 2) was 1178 pg/mL and the “Testosterone Percent reduction” value ([3]; Animal 1, Day 3) was 30%. For the same molecule, the “Testosterone Serum level” value ([3]; Animal 1, Day 3) was 784 pg/mL, the “Total Androgens Percent reduction from baseline” value ([3]; Animal 1, Day 3) was 42% and the “Total Androgens Serum level” value ([3]; Animal 1, Day 3) was 1078 pg/mL. The “Testosterone Percent reduction” value ([3]; Animal 1, Day 4) was 51%, the “Testosterone Serum level” value ([3]; Animal 1, Day 4) was 552 pg/mL and the “Total Androgens Percent reduction from baseline” value ([3]; Animal 1, Day 4) was 47%. The “Total Androgens Serum level” value ([3]; Animal 1, Day 4) was 988 pg/mL, the “Testosterone Percent reduction” value ([3]; Animal 1, Day 5) was 64% and the “Testosterone Serum level” value ([3]; Animal 1, Day 5) was 403 pg/mL. For the same molecule, the “Total Androgens Percent reduction from baseline” value ([3]; Animal 1, Day 5) was 48%, the “Total Androgens Serum level” value ([3]; Animal 1, Day 5) was 966 pg/mL and the “Testosterone Percent reduction” value ([3]; Animal 1, Day 6) was 58%. For the same molecule, the “Testosterone Serum level” value ([3]; Animal 1, Day 6) was 474 pg/mL, the “Total Androgens Percent reduction from baseline” value ([3]; Animal 1, Day 6) was 56% and the “Total Androgens Serum level” value ([3]; Animal 1, Day 6) was 819 pg/mL. For the same molecule, the “Testosterone Percent reduction” value ([3]; Animal 3, Day 2) was 22%, the “Testosterone Serum level” value ([3]; Animal 3, Day 2) was 479 pg/mL and the “Total Androgens Percent reduction from baseline” value ([3]; Animal 3, Day 2) was 48%. For the same molecule, the “Total Androgens Serum level” value ([3]; Animal 3, Day 2) was 847 pg/mL, the “Testosterone Percent reduction” value ([3]; Animal 3, Day 3) was 29% and the “Testosterone Serum level” value ([3]; Animal 3, Day 3) was 437 pg/mL. The “Total Androgens Percent reduction from baseline” value ([3]; Animal 3, Day 3) was 52%, the “Total Androgens Serum level” value ([3]; Animal 3, Day 3) was 786 pg/mL and the “Testosterone Percent reduction” value ([3]; Animal 3, Day 4) was 33%. For the same molecule, the “Testosterone Serum level” value ([3]; Animal 3, Day 4) was 415 pg/mL, the “Total Androgens Percent reduction from baseline” value ([3]; Animal 3, Day 4) was 44% and the “Total Androgens Serum level” value ([3]; Animal 3, Day 4) was 924 pg/mL. The “Testosterone Percent reduction” value ([3]; Animal 3, Day 5) was 55%, the “Testosterone Serum level” value ([3]; Animal 3, Day 5) was 276 pg/mL and the “Total Androgens Percent reduction from baseline” value ([3]; Animal 3, Day 5) was 60%. For the same molecule, the “Total Androgens Serum level” value ([3]; Animal 3, Day 5) was 664 pg/mL, the “Testosterone Percent reduction” value ([3]; Animal 3, Day 6) was 64% and the “Testosterone Serum level” value ([3]; Animal 3, Day 6) was 221 pg/mL. For the same molecule, the “Total Androgens Percent reduction from baseline” value ([3]; Animal 3, Day 6) was 56%, the “Total Androgens Serum level” value ([3]; Animal 3, Day 6) was 726 pg/mL and the Ki (CYP2C9) was 8 µM. For the same molecule, the “Free Testosterone, mean change from baseline” value (from here on “Free Testosterone, mean change”) ([4]; 100 mg) was −17.0%, the “LH, mean change from baseline” value ([4]; 100 mg) was 20.7% and the “Serum PSA, mean change from baseline” value ([4]; 100 mg) was −9.2%. The “Total Testosterone, mean change from baseline” value (“Total Testosterone, mean change” below) ([4]; 100 mg) was 3.9%, the “decrease of PSA levels” value ([4]; 100 mg) was 9.2% and the “decrease of free testosterone levels” value ([4]; 100 mg) was 17.0%. For the same molecule, the “Free Testosterone, mean change” value ([4]; 300 mg) was −18.5%, the “LH, mean change from baseline” value ([4]; 300 mg) was 46.9% and the “Serum PSA, mean change from baseline” value ([4]; 300 mg) was −24.4%. The “Total Testosterone, mean change” value ([4]; 300 mg) was 7.3%, the “decrease of PSA levels” value ([4]; 300 mg) was 24.4% and the “decrease of free testosterone levels” value ([4]; 300 mg) was 18.5%. The “Free Testosterone, mean change” value ([4]; 600 mg) was −72.7%, the “LH, mean change from baseline” value ([4]; 600 mg) was 27.6% and the “Serum PSA, mean change from baseline” value ([4]; 600 mg) was −27.5%. The “Total Testosterone, mean change” value ([4]; 600 mg) was −51.9%, the “decrease of PSA levels” value ([4]; 600 mg) was 27.5% and the “decrease of free testosterone levels” value ([4]; 600 mg) was 72.7%. The “decrease of total testosterone level” value ([4]; 600 mg) was 51.9%, the “Free Testosterone, mean change” value ([4]; 1000 mg) was −53.2% and the “LH, mean change from baseline” value ([4]; 1000 mg) was 29.2%. The “Serum PSA, mean change from baseline” value ([4]; 1000 mg) was −29.9%, the “Total Testosterone, mean change” value ([4]; 1000 mg) was −47.9% and the “decrease of PSA levels” value ([4]; 1000 mg) was 29.9%. The “decrease of free testosterone levels” value ([4]; 1000 mg) was 53.2%, the “decrease of total testosterone level” value ([4]; 1000 mg) was 47.9% and the “changes of PSA levels” value ([4]; 10 and 30 mg doses) was “No changes”. The “effect on ERR transactivation” value [5] was “failed to crossreact”, the tolerability (rats; single and repeated oral administration (up to 28 days)) was “well-tolerated” and the “pathologic changes in kidney, liver, heart and other non-target-related organs” value (rats; up to 28 days oral) was “no pathologic changes observed”. The “agonist or antagonist activity” value [6] was “did not display any agonist or antagonist activity”, the “absorption following oral dosing” value [7] was “rapidly absorbed” and the enterohepatic recirculation ([7]; second peak in the terminal phase of plasma concentration-time profiles) was “undergoes enterohepatic recirculation”. For the same molecule, the “prostate size of ORX rats” value (intact and ORX rats; ORX rats (FIG. 11B)) was “moderate increase”, the “reduction of prostate size” value (intact and ORX rats; rats (FIG. 11A), compared with DES) was “as effective as DES” and the “dose with the best results” value [8] was 10 mg. The “effect on hot flushes” value ([8]; 5, 10, 15 and 30 mg/kg (FIG. 13)) was “attenuated hot flushes”.
